{"source": "paper PMC10804683", "about": "“Identification of the pyridoxal 5′‐phosphate allosteric site in human pyridox(am)ine 5′‐phosphate oxidase” (Protein Science : A Publication of the Protein Society, 2024)", "key": {"[1]": {"target": "T1, human PNPO F48A/E50L/R258L variant (holo-enzyme) (Homo sapiens, UniProt Q9NVS9, E50L/F48A/R258L)", "T1 construct": "a main form corresponding to the entire protein; made in house; host or cells: E. coli BL21(DE3)", "T1 sequence (Q9NVS9 1-261 F48A/E50L/R258L)": "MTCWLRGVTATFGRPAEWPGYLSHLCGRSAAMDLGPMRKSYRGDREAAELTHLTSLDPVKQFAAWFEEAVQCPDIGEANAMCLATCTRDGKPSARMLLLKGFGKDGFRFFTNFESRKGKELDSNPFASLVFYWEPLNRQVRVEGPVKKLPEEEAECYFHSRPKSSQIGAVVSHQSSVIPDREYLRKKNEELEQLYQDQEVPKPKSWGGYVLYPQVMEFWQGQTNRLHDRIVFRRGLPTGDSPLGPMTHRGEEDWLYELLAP", "assay": "PLP binding by FMN fluorescence changes, holo triple variant", "conditions": "100 nM enzyme, read-out: PLP binding KD^FLUO", "text": "PLP binding to PNPO can be detected and quantitatively measured using differential scanning fluorimetry (DSF) and also by measuring FMN fluorescence changes. We had previously attributed DSF changes to PLP binding at the active site, while FMN fluorescence changes were attributed to PLP binding at the allosteric site (Barile et al., [2019], [2020]). Previous experiments carried out with the PNPO R161C variant, affecting a residue that is essential for substrate binding and catalysis (and therefore also for PLP binding at the active site), confirms that DSF measurements only report PLP binding at the active site (Barile et al., [2021]; Table 1). […] We expected to observe no FMN fluorescence changes upon titration of the variants with PLP. However, this was not the case, and the dissociation constant values obtained by observing the FMN fluorescence emission were only up to threefold larger in the variants with respect to wild type PNPO (Figure 3). […] To check the second possibility, we measured intrinsic fluorescence changes of wild type and variant apo‐forms (i.e., without FMN) upon PLP titration. […]\nAnalyses of PLP binding, based on FMN fluorescence increase observed upon binding of PLP to PNPO, were performed as described in Barile et al. ([2020]). […] Emission spectra were recorded from […], with excitation and emission slits set at 3 and 5 nm, respectively. […]"}, "[2]": {"target": "human PNPO R161C variant", "parameters": "method as in Barile et al., [2021]", "conditions": "previous experiments, ref Barile et al., [2021]; cited from earlier work"}, "[3]": {"target": "T2, human PNPO F48A variant (Homo sapiens, UniProt Q9NVS9, F48A)", "T2 sequence (Q9NVS9 1-261 F48A)": "T1 sequence (Q9NVS9 1-261 F48A/E50L/R258L) with L50E, L258R", "assay": "PLP inhibition kinetics of PNP oxidation, F48A", "type": "biochemical", "parameters": "a main form corresponding to the entire protein; made in house; host or cells: E. coli BL21(DE3)", "conditions": "F48A (behavior much less marked than wild type); Na-HEPES pH 7.6, 2 μM enzyme, PLP 0–16 μM", "experimental": "This is a general inhibition mechanism that takes into account the possibility of PLP binding to both the active and allosteric sites. PLP binding at the active site gives a complete, competitive inhibition, whereas PLP binding at the allosteric site yields a substrate‐enzyme‐PLP ternary complex that is still catalytically active, although k CAT is reduced by a coefficient whose value is around 0.15. A thorough inhibition kinetic characterization was carried out with the wild type, F48A, F48A/E50L/R258L, and F48A/E50L/H248N/R258L PNPO forms, so as to evaluate the effect of the variations on the allosteric properties of the enzyme. The initial velocity of PNP conversion into PLP was measured in Na‐HEPES buffer (in which PLP is allowed to accumulate) by varying substrate concentration at different, fixed exogenous PLP concentrations, using 2 μM enzyme. A series of saturation curves were obtained that were used to fit the Michaelis–Menten equation (Figure 5), acquiring apparent V MAX and K M values as a function of PLP concentration. […]\nFIGURE 5 Characterization of PLP inhibition. Upper panels: The initial velocity of the reaction was measured with 2 μM wild type (a), and the F48A (b), F48A/E50L/R258L (c), and F48A/E50L/H248N/R258L (d) PNPO variants, varying PNP concentration while keeping exogenous PLP fixed at different concentrations (0, 0.25, 0.5, 1, 2, 4, 8, and 16 μM). […]"}}, "note": "Residue numbers refer to the chain shown, from its start.", "data": [{"smiles": "Cc1ncc(COP(=O)(O)O)c(C=O)c1O", "note": "[PLP, pyridoxal 5′‐phosphate]", "values": [{"measurement": "Kd", "setting": "[1]", "value": "1380 ± 80", "unit": "nM"}, {"measurement": "PLP binding KD^DSF", "setting": "[2]", "value": "No binding"}, {"measurement": "type of inhibition of PNP oxidation by PLP", "setting": "[3]", "value": "typical hyperbolic increase of 1/V MAX and the parabolic increase of K M/V MAX"}]}]}
